Measurements reported in ChEMBL document CHEMBL1138016, “Azaadamantane benzamide 5-HT4 agonists: gastrointestinal prokinetic SC-54750” (Bioorg Med Chem Lett, 2004).
Values belong to the compound of their own block, whether it stands above or below them.

What was measured:
[1] = Concentration required for inhibition of Dopamine receptor D2 using [3H]spiperone as the radioligand
[2] = Concentration required for inhibition of Dopamine receptor D1 using [3H]SCH-23,390 as the radioligand
[3] = target: T1, Adrenergic receptor alpha-1 (Homo sapiens, UniProt P35348+P25100+P35368); test: Concentration required for inhibition of alpha-1 adrenergic receptor using [3H]prazosin as the radioligand; type: protein assay
T1 sequence (P35348 whole entry): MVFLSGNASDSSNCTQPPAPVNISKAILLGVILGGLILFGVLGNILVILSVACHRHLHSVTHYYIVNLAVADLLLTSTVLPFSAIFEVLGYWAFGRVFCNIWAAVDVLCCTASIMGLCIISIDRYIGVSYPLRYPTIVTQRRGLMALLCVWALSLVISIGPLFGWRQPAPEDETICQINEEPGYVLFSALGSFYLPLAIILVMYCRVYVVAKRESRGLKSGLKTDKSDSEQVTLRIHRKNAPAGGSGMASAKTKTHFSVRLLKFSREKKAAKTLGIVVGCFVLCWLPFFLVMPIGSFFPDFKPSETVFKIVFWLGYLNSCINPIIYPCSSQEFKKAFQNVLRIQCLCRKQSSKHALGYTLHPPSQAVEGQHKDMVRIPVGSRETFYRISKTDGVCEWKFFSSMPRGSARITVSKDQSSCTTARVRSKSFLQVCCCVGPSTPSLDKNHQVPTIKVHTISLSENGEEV
T1 sequence (P25100 whole entry): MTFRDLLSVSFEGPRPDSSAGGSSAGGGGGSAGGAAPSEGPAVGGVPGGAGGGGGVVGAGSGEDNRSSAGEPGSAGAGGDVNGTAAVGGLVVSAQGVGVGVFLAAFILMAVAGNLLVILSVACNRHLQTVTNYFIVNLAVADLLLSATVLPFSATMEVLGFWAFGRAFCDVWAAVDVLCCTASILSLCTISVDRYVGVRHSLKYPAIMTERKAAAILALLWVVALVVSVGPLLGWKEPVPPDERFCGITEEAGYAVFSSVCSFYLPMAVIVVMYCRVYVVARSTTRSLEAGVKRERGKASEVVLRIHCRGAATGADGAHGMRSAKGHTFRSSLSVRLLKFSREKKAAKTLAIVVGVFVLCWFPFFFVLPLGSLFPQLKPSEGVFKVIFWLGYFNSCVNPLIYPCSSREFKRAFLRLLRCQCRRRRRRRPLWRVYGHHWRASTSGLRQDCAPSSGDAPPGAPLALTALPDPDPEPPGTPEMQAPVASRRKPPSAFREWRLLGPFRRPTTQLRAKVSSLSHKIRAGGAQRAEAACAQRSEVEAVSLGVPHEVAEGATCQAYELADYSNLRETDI
T1 sequence (P35368 whole entry): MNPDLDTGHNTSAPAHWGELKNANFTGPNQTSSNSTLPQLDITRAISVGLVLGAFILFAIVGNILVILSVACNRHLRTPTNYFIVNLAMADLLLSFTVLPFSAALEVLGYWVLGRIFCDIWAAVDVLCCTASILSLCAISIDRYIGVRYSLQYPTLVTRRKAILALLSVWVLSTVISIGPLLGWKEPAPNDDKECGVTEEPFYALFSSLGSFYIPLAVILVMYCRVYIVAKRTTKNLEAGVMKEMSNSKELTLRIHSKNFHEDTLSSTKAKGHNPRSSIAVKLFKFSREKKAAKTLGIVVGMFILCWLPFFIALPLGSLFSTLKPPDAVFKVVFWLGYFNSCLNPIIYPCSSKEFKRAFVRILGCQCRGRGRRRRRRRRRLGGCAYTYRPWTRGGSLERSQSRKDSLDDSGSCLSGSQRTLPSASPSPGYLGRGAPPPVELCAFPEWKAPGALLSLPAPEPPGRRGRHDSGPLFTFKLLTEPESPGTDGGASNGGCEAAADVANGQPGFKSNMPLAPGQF

[4] = Effective dose required towards 5-hydroxytryptamine 4 receptor as agonism in rat tunica muscularis mucosae (TMM)
[5] = target: T2, Adrenergic receptor alpha-2 (Homo sapiens, UniProt P08913+P18825+P18089); test: Concentration required for inhibition of alpha-2 adrenergic receptor; type: protein assay
T2 sequence (P08913 whole entry): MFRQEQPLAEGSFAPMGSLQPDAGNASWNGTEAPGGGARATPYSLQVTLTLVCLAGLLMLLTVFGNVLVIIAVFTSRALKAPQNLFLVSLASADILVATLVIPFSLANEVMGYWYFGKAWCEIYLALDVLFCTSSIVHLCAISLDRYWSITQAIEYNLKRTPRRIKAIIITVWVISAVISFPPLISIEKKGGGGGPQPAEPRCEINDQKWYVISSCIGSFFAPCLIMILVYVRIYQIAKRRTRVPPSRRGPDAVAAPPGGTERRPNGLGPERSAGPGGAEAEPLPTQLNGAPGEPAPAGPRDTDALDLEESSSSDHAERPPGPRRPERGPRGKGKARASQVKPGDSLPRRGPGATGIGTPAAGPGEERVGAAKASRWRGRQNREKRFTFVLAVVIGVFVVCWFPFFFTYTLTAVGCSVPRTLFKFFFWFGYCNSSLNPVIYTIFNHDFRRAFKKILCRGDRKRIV
T2 sequence (P18825 whole entry): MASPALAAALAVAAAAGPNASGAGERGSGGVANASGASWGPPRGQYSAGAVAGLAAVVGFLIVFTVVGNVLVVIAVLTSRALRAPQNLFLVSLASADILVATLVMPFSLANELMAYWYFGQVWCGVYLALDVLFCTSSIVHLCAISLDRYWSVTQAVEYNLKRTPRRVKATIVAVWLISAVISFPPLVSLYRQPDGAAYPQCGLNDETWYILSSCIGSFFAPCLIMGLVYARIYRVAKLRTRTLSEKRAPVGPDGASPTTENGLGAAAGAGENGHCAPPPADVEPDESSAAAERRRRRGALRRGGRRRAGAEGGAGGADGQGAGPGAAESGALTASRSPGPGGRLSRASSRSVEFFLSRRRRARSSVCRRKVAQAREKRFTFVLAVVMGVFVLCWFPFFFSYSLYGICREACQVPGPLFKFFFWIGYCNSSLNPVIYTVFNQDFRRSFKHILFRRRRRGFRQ
T2 sequence (P18089 whole entry): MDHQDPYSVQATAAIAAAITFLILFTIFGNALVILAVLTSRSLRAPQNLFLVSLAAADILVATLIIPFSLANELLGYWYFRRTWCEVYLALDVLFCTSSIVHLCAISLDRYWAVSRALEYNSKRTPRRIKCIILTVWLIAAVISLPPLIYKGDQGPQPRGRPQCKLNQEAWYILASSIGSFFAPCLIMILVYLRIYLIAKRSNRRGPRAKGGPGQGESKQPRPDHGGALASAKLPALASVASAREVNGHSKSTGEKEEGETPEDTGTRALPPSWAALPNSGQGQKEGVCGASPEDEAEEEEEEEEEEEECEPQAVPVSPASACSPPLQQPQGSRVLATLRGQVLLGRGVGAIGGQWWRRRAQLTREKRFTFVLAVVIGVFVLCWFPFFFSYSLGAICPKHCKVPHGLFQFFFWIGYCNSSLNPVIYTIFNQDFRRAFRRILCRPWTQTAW

[6] = target: Adrenergic receptor beta (Homo sapiens, UniProt P08588+P07550+P13945); test: Concentration required for inhibition of beta adrenergic receptor; type: protein assay
[7] = Concentration required for inhibition of 5-hydroxytryptamine 3 receptor using [3H]GR-65630 as the radioligand
[8] = Concentration required for inhibition of 5-hydroxytryptamine 1 receptor using [3H]-5-HT as the radioligand
[9] = target: Serotonin 2 (5-HT2) receptor (Homo sapiens, UniProt P41595+P28223+P28335); type: protein assay
[10] = target: T3, Serotonin 3 receptor (5HT3) (Mus musculus) (UniProt Q9JHJ5+P23979); test: Percent inhibition of 5-hydroxytryptamine 3 receptor after intraperitoneal administration at dose of 10 mpk was determined in mice by Von Bezold-Jarisch reflex assay
[11] = target: T3, Serotonin 3 receptor (5HT3) (Mus musculus); test: Percent inhibition of 5-hydroxytryptamine 3 receptor after intraperitoneal administration at dose of 3 mpk was determined in mice by Von Bezold-Jarisch reflex assay
[12] = target: T3, Serotonin 3 receptor (5HT3) (Mus musculus); test: Percent inhibition of 5-hydroxytryptamine 3 receptor after intraperitoneal administration at dose of 0.1 mpk was determined in mice by Von Bezold-Jarisch reflex assay
[13] = target: T3, Serotonin 3 receptor (5HT3) (Mus musculus); test: Percent inhibition of 5-hydroxytryptamine 3 receptor after intraperitoneal administration at dose of 0.03 mpk was determined in mice by Von Bezold-Jarisch reflex assay
[14] = target: T3, Serotonin 3 receptor (5HT3) (Mus musculus); test: Percent inhibition of 5-hydroxytryptamine 3 receptor after intraperitoneal administration at dose of 1 mpk was determined in mice by Von Bezold-Jarisch reflex assay
[15] = target: T3, Serotonin 3 receptor (5HT3) (Mus musculus); test: Percent inhibition of 5-hydroxytryptamine 3 receptor after intraperitoneal administration at dose of 0.3 mpk was determined in mice by Von Bezold-Jarisch reflex assay
[16] = target: T3, Serotonin 3 receptor (5HT3) (Mus musculus); test: Percent inhibition of 5-hydroxytryptamine 3 receptor after intraperitoneal administration at dose of 8 mpk was determined in mice by Von Bezold-Jarisch reflex assay
[17] = target: T4, Serotonin 3 (5-HT3) receptor (Rattus norvegicus, UniProt P35563+Q9JJ16); test: Binding affinity towards 5-hydroxytryptamine 3 receptor using [3H]GR-65630 as the radioligand in male rat cortical tissue; type: protein-complex assay
T4 sequence (P35563 whole entry): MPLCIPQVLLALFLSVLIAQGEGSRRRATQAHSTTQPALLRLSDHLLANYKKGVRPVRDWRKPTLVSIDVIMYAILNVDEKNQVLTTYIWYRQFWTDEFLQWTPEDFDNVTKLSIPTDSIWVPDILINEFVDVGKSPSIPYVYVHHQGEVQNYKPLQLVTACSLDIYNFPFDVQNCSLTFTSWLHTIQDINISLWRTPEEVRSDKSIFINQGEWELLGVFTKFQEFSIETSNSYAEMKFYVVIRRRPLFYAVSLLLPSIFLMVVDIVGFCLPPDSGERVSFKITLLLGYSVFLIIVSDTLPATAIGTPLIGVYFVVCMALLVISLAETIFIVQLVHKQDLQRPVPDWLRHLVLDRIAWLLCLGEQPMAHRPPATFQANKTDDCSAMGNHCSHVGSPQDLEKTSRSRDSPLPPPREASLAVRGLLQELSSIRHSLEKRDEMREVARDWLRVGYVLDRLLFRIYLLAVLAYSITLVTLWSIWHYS
T4 sequence (Q9JJ16 whole entry): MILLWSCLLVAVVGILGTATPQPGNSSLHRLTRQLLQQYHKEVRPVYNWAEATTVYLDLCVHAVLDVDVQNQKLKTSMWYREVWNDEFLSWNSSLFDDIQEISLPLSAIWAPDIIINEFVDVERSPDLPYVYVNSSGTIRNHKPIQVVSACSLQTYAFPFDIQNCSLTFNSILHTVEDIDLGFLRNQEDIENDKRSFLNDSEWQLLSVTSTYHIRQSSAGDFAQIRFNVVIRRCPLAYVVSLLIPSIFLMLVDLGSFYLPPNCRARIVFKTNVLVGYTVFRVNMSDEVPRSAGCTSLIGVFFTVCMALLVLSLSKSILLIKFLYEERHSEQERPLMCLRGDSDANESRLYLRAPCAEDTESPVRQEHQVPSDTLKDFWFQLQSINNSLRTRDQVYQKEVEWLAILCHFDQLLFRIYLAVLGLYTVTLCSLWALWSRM

T3 sequence (P23979 whole entry, looked up): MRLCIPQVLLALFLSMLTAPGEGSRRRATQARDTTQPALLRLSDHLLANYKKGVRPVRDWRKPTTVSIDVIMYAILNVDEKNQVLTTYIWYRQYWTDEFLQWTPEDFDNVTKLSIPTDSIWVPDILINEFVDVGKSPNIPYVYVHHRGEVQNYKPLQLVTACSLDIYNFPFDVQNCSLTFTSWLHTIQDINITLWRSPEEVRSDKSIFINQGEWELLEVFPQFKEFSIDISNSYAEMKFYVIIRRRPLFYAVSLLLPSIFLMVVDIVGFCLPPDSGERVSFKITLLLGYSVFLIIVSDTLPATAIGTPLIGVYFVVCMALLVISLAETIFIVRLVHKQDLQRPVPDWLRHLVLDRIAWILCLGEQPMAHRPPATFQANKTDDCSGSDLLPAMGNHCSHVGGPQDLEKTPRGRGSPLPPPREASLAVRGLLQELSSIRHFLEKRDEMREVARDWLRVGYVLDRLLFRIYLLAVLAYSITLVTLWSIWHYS
T3 sequence (Q9JHJ5 whole entry, looked up): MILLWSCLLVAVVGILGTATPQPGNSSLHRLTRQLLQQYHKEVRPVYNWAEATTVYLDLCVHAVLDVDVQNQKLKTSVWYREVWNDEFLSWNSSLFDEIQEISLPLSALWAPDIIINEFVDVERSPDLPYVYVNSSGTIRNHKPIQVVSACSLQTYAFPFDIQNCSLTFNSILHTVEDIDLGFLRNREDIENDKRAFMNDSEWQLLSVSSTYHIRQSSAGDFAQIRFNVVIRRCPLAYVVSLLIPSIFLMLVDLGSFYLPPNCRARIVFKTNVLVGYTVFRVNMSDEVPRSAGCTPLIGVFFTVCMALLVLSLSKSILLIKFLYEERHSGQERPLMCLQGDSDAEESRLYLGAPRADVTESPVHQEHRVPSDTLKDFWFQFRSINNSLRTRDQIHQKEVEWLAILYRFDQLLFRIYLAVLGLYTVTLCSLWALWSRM

inhibition [10]: 88%
inhibition [12]: 60%
inhibition [13]: 0%
inhibition [14]: 82%
inhibition [16]: 82%
inhibition [15]: 75%
Compound: COc1cc(N)c(Cl)cc1C(=O)NCC1C2CC3CC1CN(C3)C2 (stereo in doubt; 9c)

IC50 [7]: 11 nM
Ki [17]: 144 nM
Compound: COc1cc(N)c(Cl)cc1C(=O)NCC1C2CC3CC1CN(C3)C2 (stereo in doubt; 9d) [listing 1 of 2 here]

inhibition [10]: 85%
inhibition [11]: 82%
inhibition [14]: 0%
Compound: COc1cc(N)c(Cl)cc1C(=O)NCC1C2CC3CC1CN(C3)C2 (stereo in doubt; 9d) [listing 2 of 2 here]

Second part, the compound before the results:

Compound: COc1cc(N)c(Cl)cc1C(=O)N[C@@H]1C2CC3CN(C2)CC31 (stereo not given in full)
IC50 [1]: > 10000 nM
IC50 [2]: > 10000 nM
IC50 [3]: > 10000 nM
ED50 [4]: 51.3 nM
IC50 [5]: > 10000 nM
IC50 [6]: > 10000 nM
IC50 [7]: 2.3 nM
IC50 [8]: > 10000 nM
IC50 [9]: > 10000 nM

Compound: COc1cc(N)c(Cl)cc1C(=O)NC1C2CC3CC1CN(C3)C2 (stereo in doubt; 9a)
inhibition [10]: 85%
inhibition [11]: 0%
ED50 [4]: 538 nM

Compound: COc1cc(N)c(Cl)cc1C(=O)NC1C2CC3CC1CN(C3)C2 (stereo in doubt; 9b)
inhibition [10]: 86%
inhibition [12]: 64%
inhibition [11]: 81%
inhibition [13]: 61%
ED50 [4]: 262 nM
inhibition [14]: 75%
inhibition [15]: 70%

Compound: COc1cc(N)c(Cl)cc1C(=O)NC1CCN(CCCOc2ccc(F)cc2)CC1OC (stereo not given) [CISAPRIDE]
IC50 [2]: 1700 nM
IC50 [3]: 30 nM
ED50 [4]: 54.7 nM
IC50 [6]: > 10000 nM
IC50 [8]: > 10000 nM
